We go through two molecules from PMC10177692, “Novel topoisomerase II/EGFR dual inhibitors: design, synthesis and docking studies of naphtho[2′,3′:4,5]thiazolo[3,2-a]pyrimidine hybrids as potential anticancer agents with apoptosis inducing activity” (Journal of Enzyme Inhibition and Medicinal Chemistry, 2023).

Structures are written as SMILES. Read-outs that look alike come from different tables or passages of the source.

For one assay, the system named is MCF-7 cells. As to the kind of experiment: In vitro DNA flow cytometry (cell cycle analysis). In kind it is cell-based, human. To be noted: MCF-7, at IC50, 24 h; for DNA content %Pre-G1: control 1.89; for DNA content %G2/M: control 7.68; for DNA content %S: control 35.09; for DNA content %G0-G1: control 57.23. The procedure: MCF-7 cells were seeded at density of 2 × 10^5 into each well of a 6-well plate. The cells were maintained in Dulbecco’s Modified Eagle’s Medium (DMEM), supplied with 10% foetal bovine serum, and incubated in a humidified atmosphere containing 5% CO2 in air for 24 h at 37 °C. The incubation medium was replaced with a fresh one containing the synthesised hybrids 6a and 6i at their IC50 in DMSO (1% v/v). The cell plates were incubated for 24 h. The cells were washed twice with cold phosphate buffered saline (PBS) then fixed with 70% ice-cold ethanol. Cells washed with PBS at 37 °C for 30 min and recovered by centrifugation at 2000 rpm for 5 min. Cells were stained using DNA fluorochrome propidium iodide (PI). The plates were incubated at room temperature for 20 min in a dark place. Then the cells were investigated with a FACS Calibre flow cytometer (Becton Dickinson, Heidelberg, Germany)[48].

The target of another assay is T1, EGFR (Homo sapiens, UniProt P00533).
T1 construct: purchased BPS Bioscience, San Diego, CA, USA
T1 sequence (P00533 25-1210): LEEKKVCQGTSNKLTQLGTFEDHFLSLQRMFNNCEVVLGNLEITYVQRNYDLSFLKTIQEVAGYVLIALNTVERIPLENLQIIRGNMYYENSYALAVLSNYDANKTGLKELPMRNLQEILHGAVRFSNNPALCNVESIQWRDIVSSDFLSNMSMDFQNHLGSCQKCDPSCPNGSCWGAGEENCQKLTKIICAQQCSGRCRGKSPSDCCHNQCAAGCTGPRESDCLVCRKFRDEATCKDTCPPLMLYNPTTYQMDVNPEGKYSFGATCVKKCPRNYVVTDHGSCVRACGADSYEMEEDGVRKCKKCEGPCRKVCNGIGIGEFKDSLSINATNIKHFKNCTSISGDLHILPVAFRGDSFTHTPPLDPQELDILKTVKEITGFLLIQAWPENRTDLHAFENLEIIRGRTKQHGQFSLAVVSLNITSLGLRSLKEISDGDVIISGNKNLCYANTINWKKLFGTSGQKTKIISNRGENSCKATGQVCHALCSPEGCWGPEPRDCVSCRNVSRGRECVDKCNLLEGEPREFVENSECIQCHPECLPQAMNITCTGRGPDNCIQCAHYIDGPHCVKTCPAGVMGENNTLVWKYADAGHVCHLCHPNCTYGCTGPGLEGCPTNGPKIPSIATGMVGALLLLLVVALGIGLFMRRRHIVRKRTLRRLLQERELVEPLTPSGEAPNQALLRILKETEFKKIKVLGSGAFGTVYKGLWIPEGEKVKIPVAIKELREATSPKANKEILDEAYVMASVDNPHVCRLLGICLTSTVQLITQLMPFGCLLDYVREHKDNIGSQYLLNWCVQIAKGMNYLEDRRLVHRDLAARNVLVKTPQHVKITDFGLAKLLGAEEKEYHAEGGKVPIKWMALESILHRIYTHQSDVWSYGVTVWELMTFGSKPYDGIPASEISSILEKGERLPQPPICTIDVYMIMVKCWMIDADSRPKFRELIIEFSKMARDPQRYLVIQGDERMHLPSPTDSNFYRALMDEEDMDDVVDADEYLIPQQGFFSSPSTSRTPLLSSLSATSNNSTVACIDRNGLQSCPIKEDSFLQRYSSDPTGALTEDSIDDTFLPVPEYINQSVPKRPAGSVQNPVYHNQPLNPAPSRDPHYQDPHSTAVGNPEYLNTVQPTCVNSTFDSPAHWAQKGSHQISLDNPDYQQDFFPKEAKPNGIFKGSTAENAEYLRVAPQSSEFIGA
As to the kind of experiment: EGFR kinase assay kit. In kind it is biochemical. To be noted: mean ± SE. The procedure: The kinase activity of EGFR was assessed for 6a, 6c and 6i hybrids using EGFR kinase assay kit (BPS Bioscience, San Diego, CA, USA) based on the manufacturer’s instructions. Three independent experiments were performed for each compound and Mean ± SE were calculated.

Another assay relates to HCT-116. As to the kind of experiment: MTT anti-proliferative assay. It counts as cell-based, human. To be noted: for IC50: Homo sapiens, HCT-116, MTT, 24 h, mean ± SE of three experiments, read-out: IC50 (µM) ± S.E. HCT-116. The method, then: (§1) The culture media were supplemented with 10% heat inactivated foetal bovine serum (FBS, HyClone, Thermo Scientific) and antibiotics (100 U/ml penicillin and 100 µg/ml streptomycin, HyClone, Thermo Scientific). The cells were incubated in a humidified atmosphere containing 5% CO2 (Heracell VIOS CO2 incubator, Thermo Scientific) in air at 37 °C.
(§2) MTT reagent, at volume equal to 10% of the culture medium volume, was added to the cultured cells and to the blank wells. The culture plates were re-incubated for 2–4 h depending on cell type and density. After the incubation period, culture plates were restored from the incubator and the obtained formazan crystals were dissolved in acidified isopropanol with continuous shaking using plate shaker (MaxQ 2000, Thermo Fisher Scientific Inc., MI, USA) at room temperature. Absorbance was measured spectrophotometrically at wavelength 570 nm using a plate reader (Stat FaxR 4200, Awareness Technology, Inc., FL, USA). […] Three independent experiments were performed for each compound and Mean ± SE were calculated.
(In general: Tetrazolium assays rely on reduction of a dye to a coloured formazan, in cell work by metabolically active cells.)

In another assay the test system is A549. As to the kind of experiment: MTT anti-proliferative assay. It counts as cell-based, human. The note with it: for IC50: Homo sapiens, A549, MTT, 24 h, mean ± SE of three experiments, read-out: IC50 (µM) ± S.E. A549. The method, then:
as §1, §2

Another assay concerns MCF-7. Description: MTT anti-proliferative assay. To be noted: for IC50: Homo sapiens, MCF7. In kind it is cell-based, human. The procedure: as §1, §2
The test system of a further assay is p53. As to the kind of experiment: p53 level ELISA in MCF-7 cells. To be noted: for p53 FLD: MCF-7, at IC50, fold of control cells; for p53 Conc.(pg/ml): control 257 ± 19.1. It counts as cell-based, human. The procedure: p53 level was determined in MCF-7 cell line using Human p53 ELISA Kit (Sigma Aldrich, St. Louis, MO, USA). The cells were lysed using cell extraction buffer. Cell lysate was diluted with standard diluent buffer, then added to p53 monoclonal antibody pre-coated 96-wells plate. The plate incubated for 2 h at room temperature. Anti-p53 detection antibody was added to the plate and re-incubated at room temperature for 1 h. The plate washed four times using wash buffer followed by addition of anti-rabbit IgG-Horseradish Peroxidase (HRP) working solution. The plate incubated at room temperature for 30 min. Chromogen TMB (tetramethylbenzidine) was added to induce colour reaction. The absorbance of the plate was read at 450 nm using microplate reader (Bio-Rad Laboratories, Hercules, CA, USA). Three independent experiments were performed for each compound and Mean ± SE were calculated.

For another assay, the target named is T2, topoisomerase II (Homo sapiens, UniProt P11388).
T2 construct: purchased Topogen, USA
T2 sequence (P11388 whole entry): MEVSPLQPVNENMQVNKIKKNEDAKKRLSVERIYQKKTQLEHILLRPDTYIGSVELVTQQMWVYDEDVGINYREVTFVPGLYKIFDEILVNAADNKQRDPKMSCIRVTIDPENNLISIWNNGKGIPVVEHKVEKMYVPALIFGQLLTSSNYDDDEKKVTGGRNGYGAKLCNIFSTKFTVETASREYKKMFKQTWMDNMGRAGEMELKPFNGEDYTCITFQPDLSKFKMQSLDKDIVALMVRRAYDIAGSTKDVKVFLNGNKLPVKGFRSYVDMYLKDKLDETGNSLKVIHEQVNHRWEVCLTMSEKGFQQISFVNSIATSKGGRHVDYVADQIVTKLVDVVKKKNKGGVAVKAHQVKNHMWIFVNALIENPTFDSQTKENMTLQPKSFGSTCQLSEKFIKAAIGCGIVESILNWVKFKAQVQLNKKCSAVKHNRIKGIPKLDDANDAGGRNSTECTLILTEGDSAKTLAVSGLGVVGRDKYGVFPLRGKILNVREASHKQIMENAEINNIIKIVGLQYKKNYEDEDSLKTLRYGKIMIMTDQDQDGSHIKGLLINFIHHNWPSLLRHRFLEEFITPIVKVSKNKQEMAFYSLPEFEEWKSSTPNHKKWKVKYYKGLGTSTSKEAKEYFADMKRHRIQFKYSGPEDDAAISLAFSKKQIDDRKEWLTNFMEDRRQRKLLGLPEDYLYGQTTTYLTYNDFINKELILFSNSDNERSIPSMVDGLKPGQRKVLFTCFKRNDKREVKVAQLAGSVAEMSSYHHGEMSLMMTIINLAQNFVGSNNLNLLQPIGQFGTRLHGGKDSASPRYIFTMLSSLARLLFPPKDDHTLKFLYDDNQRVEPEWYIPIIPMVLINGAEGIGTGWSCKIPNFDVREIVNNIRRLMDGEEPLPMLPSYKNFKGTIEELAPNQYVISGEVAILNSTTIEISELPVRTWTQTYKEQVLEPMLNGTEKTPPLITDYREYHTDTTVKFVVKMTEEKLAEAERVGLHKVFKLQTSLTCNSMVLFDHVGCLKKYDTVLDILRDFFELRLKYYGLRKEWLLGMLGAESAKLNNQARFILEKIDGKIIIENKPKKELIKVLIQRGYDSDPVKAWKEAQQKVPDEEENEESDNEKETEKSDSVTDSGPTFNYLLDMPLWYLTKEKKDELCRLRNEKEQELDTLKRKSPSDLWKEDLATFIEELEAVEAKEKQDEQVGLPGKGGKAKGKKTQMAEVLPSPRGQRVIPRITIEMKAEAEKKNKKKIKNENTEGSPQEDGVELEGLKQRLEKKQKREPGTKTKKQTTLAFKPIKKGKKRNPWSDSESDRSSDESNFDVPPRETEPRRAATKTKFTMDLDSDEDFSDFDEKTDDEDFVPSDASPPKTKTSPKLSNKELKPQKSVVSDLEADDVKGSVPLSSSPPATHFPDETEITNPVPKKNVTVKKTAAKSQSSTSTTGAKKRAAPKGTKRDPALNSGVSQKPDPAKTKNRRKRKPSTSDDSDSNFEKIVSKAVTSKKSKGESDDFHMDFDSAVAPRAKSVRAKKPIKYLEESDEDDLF
Description: DNA topo II inhibition assay (kDNA, agarose gel). It counts as biochemical. To be noted: 10 µM, with topo II. The procedure:
Using the procedure outlined in topoisomerase II Drug Screening Kit (Topogen, USA), the effect of 6a, 6c and 6i on topoisomerase II inhibition and the effectiveness of catenated/decatenated kDNA formation were examined. The reaction mixture includes 10 mM MgCl2, 50 mM Tris-HCl, 0.5 mM dithiothreitol, […]/ml bovine serum albumin, 200–300 ng of kDNA and topoisomerase II. […] After the reaction samples were incubated for 30 min at 37 °C, the reaction was stopped by adding […] of a stop buffer containing 10% (w/v) SDS and […] of 0.5 mg/ml proteinase followed by incubating the mixture for 10 min at 37 °C. The reaction mixture was separated by 1% agarose gel and examined after being stained with ethidium bromide.

The next assay has as its system Bcl-2. Description: Bcl-2 level ELISA in MCF-7 cells. In kind it is cell-based, human. The note with it: for Bcl-2 Conc.(ng/ml): MCF-7, at IC50, 24 h, control 6.56 ± 0.22; for Bcl-2 FLD: MCF-7, at IC50, fold of control cells. The method, then:
MCF-7 cells were cultured in DMEM supplied with 10% FBS and incubated in 5% CO2 in air at 37 °C. […] Cell lysate was diluted using standard diluent buffer over the range of assay. Bax and Bcl-2 content in the lysate was assessed using human Bax ELISA kit (DRG, USA) and Bcl-2 ELISA Kit (Zymed Laboratories, Invitrogen Immuno-detection, Canada), respectively, according to the manufacturer’s instructions for each kit. The results were expressed as Mean ± SE of three independent experiments.
On the technique in general: An ELISA detects its analyte on a solid surface through an enzyme-linked reagent.

For a further assay, the system named is caspase-7. Description: Caspase-7 ELISA in MCF-7 cells. In kind it is cell-based, human. To be noted: for Caspase 7 FLD: MCF-7, at IC50, fold of control; for Caspase 7 Conc.(ng/ml): MCF-7, at IC50, control 0.45 ± 0.03. The method, then: (§3) The effect of 6a, 6c and 6i hybrids on caspase-7 and −9 levels in MCF-7 cell line was measured using Human Caspase-7 ELISA Kit (BioVision Inc., Milpitas, CA 95035 USA) and Human Caspase-9 ELISA Kit (EIA-4860, DRG, USA), respectively, and according to the manufacturer’s instructions. The results were expressed as Mean ± SE of three independent experiments.

A further assay relates to caspase-9. As to the kind of experiment: Caspase-9 ELISA in MCF-7 cells. It counts as cell-based, human. The note with it: for Caspase 9 Conc.(pg/ml): MCF-7, at IC50, control 4.51 ± 0.29. The procedure:
as §3

[1] abbreviates: MCF-7, concentration used for treatment, read-out: IC50 µM (Table 4).
Where [2] appears, read: MCF-7, concentration used for treatment, read-out: IC50 (Table 2).
The mark [3] stands for this setting: MCF-7, concentration used for treatment, read-out: IC50 (Table 3).
Setting [4] is: MTT, 24 h, mean ± SE of three experiments, read-out: IC50 (µM) ± S.E. MCF-7.

As a reminder, the IC50 is the point on the concentration scale where inhibition reaches its midpoint. Turning to `N#Cc1c(-c2ccc([N+](=O)[O-])cc2)nc2sc3c(n2c1=O)C(=O)c1ccccc1C3=O` [Compound 6i, 2–(4-Nitrophenyl)-4,6,11-trioxo-6,11-dihydro-4H-naphtho[’',’':4,5]thiazolo-[3,2-a]pyrimidine-3-carbonitrile], in the assay on MCF-7 cells, the “DNA content %Pre-G1” value is on record as 45.26%, the “DNA content %G2/M” value amounted to 2.89%, the “DNA content %S” value came out at 51.17% and the “DNA content %G0-G1” value was 45.94%. The “EGFR inhibitory activity IC50” value at EGFR is recorded as “nearly equipotent to that of erlotinib”. In the assay with HCT-116 (HCT-116, ratio of IC50 values), the “fold superior activity than Dox” value is 2.96 fold and the “fold the activity of erlotinib” value stood at 3.77 fold. For the same molecule, the IC50 in the assay on HCT-116 came to 2.29 ± 0.18 µM. In the assay with A549 (A549, ratio of IC50 values), the “fold superior activity than Dox” value came out at 3.19 fold and the “fold the activity of erlotinib” value is listed as 3.35 fold. Besides, the IC50 in the assay on A549 is 1.55 ± 0.13 µM. Also, in the assay with MCF-7 (setting [1]), the IC50 came to 1.79 µM. Further, the IC50 with MCF-7 (setting [2]) was found to be 1.79 µM. In addition, in the assay on MCF-7 (setting [3]), the IC50 worked out at 1.79 µM. In the assay with MCF-7 (setting [4]), the IC50 was determined as 1.79 ± 0.11 µM. For the same molecule, in the assay on MCF-7 (MCF-7, ratio of IC50 values), the “fold superior activity than Dox” value amounted to 3.13 fold and the “fold the activity of erlotinib” value was 4.05 fold. In the assay with p53 (MCF-7, at IC50), the “increase in p53 level compared to Dox treated cells” value is listed as 1.2 fold and the “p53 Conc.(pg/ml)” value stood at 1285 ± 29.9 pg/mL. Moreover, the “p53 FLD” value in the assay on p53 came to 5 fold. The “linear DNA formation from catenated kDNA” value on topoisomerase II is reported as “the production of linear DNA was not noticed”. For the same molecule, in the assay on Bcl-2, the “Bcl-2 Conc.(ng/ml)” value turned out to be 3.64 ± 0.08 ng/mL and the “Bcl-2 FLD” value came to 0.55 fold. Further, in the assay with caspase-7, the “Caspase 7 FLD” value was determined as 20.41 fold and the “Caspase 7 Conc.(ng/ml)” value came out at 9.20 ± 0.87 ng/mL. Moreover, the “Caspase 9 Conc.(pg/ml)” value in the assay on caspase-9 came out at 32.29 ± 0.33 pg/mL.
Consider `COc1ccc(-c2nc3sc4c(n3c(=O)c2C#N)C(=O)c2ccccc2C4=O)cc1` [Compound 6a, 2–(4-Methoxyphenyl)-4,6,11-trioxo-6,11-dihydro-4H-naphtho[2′,3′:4,5]-thiazolo[3,2-a]pyrimidine-3-carbonitrile], for which the “DNA content %Pre-G1” value in the assay on MCF-7 cells is on record as 33.41%. Moreover, the “DNA content %G2/M” value with MCF-7 cells came to 34.78%. In the assay on MCF-7 cells, the “DNA content %S” value is 28.94%. The “DNA content %G0-G1” value with MCF-7 cells turned out to be 36.28%. The IC50 worked out at 0.016 ± 0.00047 µM at EGFR (read-out: EGFR inhibitory activity IC50); 3.58 ± 0.24 µM with HCT-116; 2.81 ± 0.18 µM in the assay on A549; 3.34 µM with MCF-7 (setting [1]); 3.34 µM with MCF-7 (setting [2]); 3.34 µM in the assay with MCF-7 (setting [3]). Also, in the assay with MCF-7 (setting [4]), the IC50 turned out to be 3.34 ± 0.21 µM. For the same molecule, the “p53 FLD” value with p53 was found to be 3.6 fold. Moreover, the “p53 Conc.(pg/ml)” value in the assay on p53 (MCF-7, at IC50) is 922 ± 37.5 pg/mL. Further, the “linear DNA formation from catenated kDNA” value on topoisomerase II is reported as “the production of linear DNA was not noticed”. Further, the “Bcl-2 Conc.(ng/ml)” value in the assay on Bcl-2 stood at 3.99 ± 0.24 ng/mL. The “Bcl-2 FLD” value with Bcl-2 came to 0.61 fold. Besides, in the assay on caspase-7, the “Caspase 7 FLD” value is 14.93 fold. The “Caspase 7 Conc.(ng/ml)” value in the assay with caspase-7 is 6.72 ± 0.23 ng/mL. The “Caspase 9 FLD” value with caspase-9 (MCF-7, at IC50, fold of control) is listed as 4.69 fold. Moreover, in the assay with caspase-9, the “Caspase 9 Conc.(pg/ml)” value was determined as 21.17 ± 0.38 pg/mL.
